Here are results for two compounds from US12459931B2, “Benzothiophene derivative regulator, preparation method therefor and use thereof” (Shanghai Hansoh Biomedical Co., Ltd., priority 2019, dated 2025).

Like-named read-outs stand apart in the source and are kept apart here.

In data set [1] the target is Human Dopamine D3 Receptor (Homo sapiens (Human), UniProt P35462). Briefly: Radioligand-receptor binding assay, dopamine D3 receptor ([3H]-methylspiperone). Particulars: [3H]-methylspiperone 0.5 nM, human D3 receptor membrane. As for the experimental part: Determination of the Binding Ability of the Compounds of the Present Invention to Dopamine D3 Receptor
The objective of this test example is to determine the affinity of the compounds for dopamine D3 receptor.
Assay buffer: 50 mM Tris-HCl pH 7.4, 10 mM MgCl2; wash solution: 50 mM Tris-HCl pH 7.4, stored at 4° C.; 0.5% PEI solution: 0.5 g PEI dissolve in 100 mL ddH2O, 4° C. storage of spare.
(§1) 5 μL of the test compounds (0.005 nM to 100 nM, 10 concentrations in total) and 100 μL of buffer were added to a 96-well assay plate. 1 μL of cell membrane and 300 μL of buffer were added to each well, and the plate was shaken at 600 rpm for 5 min. A mixed solution of 100 μL of buffer and [^3H]-methylspiperone (the final concentration was 0.5 nM) was added to each well. The plate was shaken at 600 rpm for 5 min, and incubated at 27° C. for 30 min. The […]-96 GF/B filter plate pre-incubated with 0.5% PEI for 1 h was washed twice with the buffer (1 mL/well). The cell membrane suspension was added to the […]-96 GF/B filter plate, washed 4 times, and incubated at 55° C. for 10 min. 40 μL of ULTIMA GOLD was added to each well, and liquid scintillation counting was carried out.
(§2) The CPM (Counts per minute) values were determined by TopCount. […] The 10 concentrations of the compound were from 100 nM to 0.005 nM after 3-fold dilution of the reaction system. The percent inhibition rate and ten-point concentration data were fitted to the parametric nonlinear logistic equation by using GraphPad prism to calculate the IC50 values of the compound.

Data set [2] is described as follows: Pharmacokinetic assay in Balb/c mice (plasma and brain tissue). It is filed as in vivo. Particulars: p.o. 5 mg/kg; for AUC(0-t) / AUC(0-inf) / Cmax / MRT / half-life: male, Balb/c, mouse, po; for AUC(0-t): read-out: Area under curve AUC0-t; for AUC(0-inf): read-out: Area under curve AUC0-∞; for Cmax: read-out: Plasma concentration Cmax; for MRT: read-out: Average residence time MRT; for half-life: read-out: Half life t1/2 (converted). The procedure: III. Pharmacokinetic Assay in Balb/c Mice
Balb/c mice were used as test animals. The pharmacokinetic behavior of the compounds of Examples of the present invention was studied in mouse body (plasma and brain tissue) by orally administration at a dose of 5 mg/kg.
Male Balb/c mice (12 mice per group), purchased from Shanghai Jiesijie Laboratory Animal Co., LTD, with Certificate No.: SCXK (Shanghai) 2013-0006 N0.311620400001794. • 2.3 Formulation of the preparation: […]
The test compound was dissolved in 0.5% CMC-Na (1% Tween80) by sonication to formulate a clear solution or homogeneous suspension. • 2.4 Administration:
After an overnight fast, male Balb/c mice (12 mice per group) were administered p.o. with the test compound at a dose of 5 mg/kg and a volume of 10 mL/kg. • 2.5 Sample collection:
0.2 mL of blood was taken from the heart of the mouse before administration and at 1, 2, 4, 8 and 24 hours after administration, and the mice were sacrificed with CO2. The samples were stored in EDTA-K2 tubes, and centrifuged for 6 minutes at 4° C., 6000 rpm to separate the plasma. The plasma samples were stored at −80° C. Whole brain tissue was taken out, weighed, placed in a 2 mL centrifuge tube, and stored at −80° C. • 2.6 Sample process:
1) 160 μL of acetonitrile was added to 40 μL of the plasma sample for precipitation, and then the mixture was centrifuged at 3500×g for 5 to 20 minutes.
2) 90 μL of acetonitrile containing internal standard (100 ng/mL) was added to 30 μL of the plasma and brain homogenate sample for precipitation, and then the mixture was centrifuged at 13000 rpm for 8 minutes.
3) 70 μL of water was added to 70 μL of the treated supernatant and mixed by vortex for 10 minutes. 20 μL of the solution was taken to analyze the concentration of the test compound by LC/MS/MS. LC/MS/MS analytical instrument: AB Sciex API 4000 Qtrap. • 2.7 Liquid chromatography analysis: • Liquid chromatography condition: Shimadzu LC-20AD pump • Chromatographic column: Agilent ZORBAX XDB-C18 (50×2.1 mm, 3.5 μm); Mobile phase: Eluent A was 0.1% formic acid in water, and Eluent B was acetonitrile • Flow rate: 0.4 mL/min • Elution time: 0-4.0 minutes the eluent is as follows:
The main parameters of pharmacokinetics were calculated by WinNonlin 6.1.

Data set [3] has as its target T1, 5-HT2A receptor (Homo sapiens (Human), UniProt P28223). Briefly: Effect on calcium ion mobility in cells stably expressing 5-HT2A receptors (Flp-In-CHO-5HT2A, FLIPR). Format: cell-based. Particulars: Flp-In-CHO-5HT2A cells, 5HT as agonist. The procedure: To determine the inhibitory effect of the compounds on 5-HT2A receptor.
Probenecid and BSA were added fresh on the day of the experiment.
The calcium signal values were determined by FLIPR. […] The percent inhibition rate and ten-point concentration data were fitted to the parametric nonlinear logistic equation by using GraphPad prism to calculate the IC50 values of the compound.

Data set [4] addresses T1, 5-HT2A receptor. Description: Radioligand-receptor binding assay, 5-HT2A receptor ([3H]-Ketanserin). The settings on record: [3H]-Ketanserin 2 nM, human 5-HT2A receptor membrane; read-out: 5HT-2A binding activity IC50. As for the experimental part:
Determination of the Binding Ability of the Compounds of the Present Invention to 5-HT2A Receptor
The objective of this test example is to determine the affinity of the compounds for 5-HT2A receptor.
Assay buffer: 50 mM Tris-HCl pH 7.4, 4 mM CaCl2); wash solution: 50 mM Tris-HCl pH 7.4, stored at 4° C.; 0.5% PEI solution: 0.5 g PEI dissolve in 100 mL ddH2O, 4° C. storage of spare.
as §1, with “plate. 1.5” for “plate. 1”, “300 L” for “300 μL”, “each well. The” for “each well, and the”, “and [^3H]-Ketanserin” for “and [^3H]-methylspiperone”, “was 2” for “was 0.5”
as §2

For another data set, the target named is D3 receptor (Homo sapiens (Human), UniProt P35462). Description: Effect on cAMP content in cells stably expressing D3 receptors (CHO-D3). It is filed as cell-based. Particulars: forskolin stimulated, activation. The procedure:
To determine the activation effect of the compounds on D3 receptor.
3. The experimental buffer (1*HBSS, 0.1% BSA, 20 mM HEPES and 500 μM IBMX) was prepared. The compound was diluted with the buffer. 2.5 μL of the compound solution was added to each well, and the plate was incubated at 37° C. for 10 minutes. The forskolin was diluted to 8 μM (8*) with the experimental buffer. […] The reaction plate was centrifuged at 200 g for 30 s at room temperature, and left to stand at 25° C. for 1 h. Data was collected using Envision.

T1 sequence (P28223 whole entry): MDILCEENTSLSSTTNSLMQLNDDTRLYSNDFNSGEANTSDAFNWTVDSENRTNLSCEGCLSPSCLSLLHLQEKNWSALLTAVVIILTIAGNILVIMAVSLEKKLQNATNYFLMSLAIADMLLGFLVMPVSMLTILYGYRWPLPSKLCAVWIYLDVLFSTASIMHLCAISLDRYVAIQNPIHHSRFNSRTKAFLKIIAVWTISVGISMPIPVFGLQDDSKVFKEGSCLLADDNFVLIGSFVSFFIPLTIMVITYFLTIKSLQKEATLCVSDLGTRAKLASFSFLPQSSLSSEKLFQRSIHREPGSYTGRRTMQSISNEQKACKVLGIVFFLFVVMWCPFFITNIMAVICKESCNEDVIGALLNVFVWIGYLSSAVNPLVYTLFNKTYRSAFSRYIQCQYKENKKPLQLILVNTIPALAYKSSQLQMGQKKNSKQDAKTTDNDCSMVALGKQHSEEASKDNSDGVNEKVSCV
Chain of Human Dopamine D3 Receptor (P35462 whole entry): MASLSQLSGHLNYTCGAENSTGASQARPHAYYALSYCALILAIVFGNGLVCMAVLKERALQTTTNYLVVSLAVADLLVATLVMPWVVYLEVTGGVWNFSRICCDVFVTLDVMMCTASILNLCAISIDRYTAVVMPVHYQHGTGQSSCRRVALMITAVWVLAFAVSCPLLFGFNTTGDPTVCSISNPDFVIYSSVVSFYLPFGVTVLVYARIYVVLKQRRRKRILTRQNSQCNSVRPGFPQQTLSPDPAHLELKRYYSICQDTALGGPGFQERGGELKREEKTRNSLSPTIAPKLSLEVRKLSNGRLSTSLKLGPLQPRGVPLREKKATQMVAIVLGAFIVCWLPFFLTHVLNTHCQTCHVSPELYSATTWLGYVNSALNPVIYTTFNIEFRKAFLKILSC
Chain of D3 receptor (P35462 whole entry): as above

As usually defined, the IC50 is the midpoint of a concentration-inhibition curve. The term MRT denotes a mean duration of stay, worked out from the concentration-time curve. In the case of `O=C(N[C@H]1CC[C@](F)(CCN2CCN(c3cccc4sccc34)CC2)CC1)c1ccco1` [Example 40, N-(Cis-4-(2-(4-(benzo[b]thiophen-4-yl)piperazin-1-yl)ethyl)-4-fluorocyclohexyl)furan-2-carboxamide], the IC50 in data set [1] came out at 0.83 nM. Besides, in data set [2] (Brain), the Peak time tmax came to 1 h, the AUC(0-t) was determined as 4590 ng·h/mL, the AUC(0-inf) is 4960 ng·h/mL and the Cmax was found to be 328 ng/mL. Further, in data set [2] (Plasma), the Peak time tmax came out at 6 h, the AUC(0-t) is 3070 ng·h/mL, the AUC(0-inf) was 3390 ng·h/mL and the MRT was found to be 9.21 h. In data set [2] (Plasma), the half-life was 7.3 h and the Cmax was determined as 192 ng/mL. In addition, the half-maximal inhibitory concentration (IC50) on 5-HT2A receptor [3] worked out at 3.16 nM. Besides, the IC50 at 5-HT2A receptor [4] came to 0.43 nM.
A word on the EC50: it is the concentration at which the effect is half-maximal. For the compound `O=C(N[C@H]1CC[C@H](CCN2CCN(c3cccc4sccc34)CC2)CC1)c1ncco1` [Example 43, N-(Trans-4-(2-(4-(benzo[b]thiophen-4-yl)piperazin-1-yl)ethyl)cyclohexyl)oxazole-2-carboxamide], the half-inhibitory concentration (IC50) in data set [1] was 0.43 nM. In addition, in data set [2] (Brain), the Peak time tmax was 1 h, the AUC(0-t) turned out to be 14100 ng·h/mL, the AUC(0-inf) was determined as 16500 ng·h/mL and the Cmax was determined as 1390 ng/mL. Further, in data set [2] (Plasma), the Peak time tmax was found to be 1 h, the AUC(0-t) was determined as 4140 ng·h/mL, the AUC(0-inf) came to 4860 ng·h/mL and the MRT turned out to be 11.8 h. In data set [2] (Plasma), the half-life was 8.9 h and the Cmax came to 403 ng/mL. Also, a half-maximal response at D3 receptor (EC50) required 0.1 nM. Besides, the 50% inhibitory concentration (IC50) at 5-HT2A receptor [4] was 0.37 nM.
